Key:
Type in all cases: biochemical
human Yes1 enzyme = molecular target: T1, human Yes1 enzyme (Homo sapiens, UniProt P07947); test: Yes1 enzyme inhibitory activity (time-resolved fluorometry, biotinylated peptide phosphorylation); conditions: read-out: YES_IC50
T1 construct: made in house
Outline: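 Inhibition was expressed against a compound-free control to give IC50, using TR-FRET read-out (Eu-cryptate anti-pTyr antibody, streptavidin-XL665).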

human Src enzyme = molecular target: T2, human Src enzyme (Homo sapiens, UniProt P12931); test: Src enzyme inhibitory activity (time-resolved fluorometry, biotinylated peptide phosphorylation); conditions: read-out: SRC_IC50
T2 construct: purchased Carna Biosciences, Inc. 08-173
T2 sequence (P12931 whole entry): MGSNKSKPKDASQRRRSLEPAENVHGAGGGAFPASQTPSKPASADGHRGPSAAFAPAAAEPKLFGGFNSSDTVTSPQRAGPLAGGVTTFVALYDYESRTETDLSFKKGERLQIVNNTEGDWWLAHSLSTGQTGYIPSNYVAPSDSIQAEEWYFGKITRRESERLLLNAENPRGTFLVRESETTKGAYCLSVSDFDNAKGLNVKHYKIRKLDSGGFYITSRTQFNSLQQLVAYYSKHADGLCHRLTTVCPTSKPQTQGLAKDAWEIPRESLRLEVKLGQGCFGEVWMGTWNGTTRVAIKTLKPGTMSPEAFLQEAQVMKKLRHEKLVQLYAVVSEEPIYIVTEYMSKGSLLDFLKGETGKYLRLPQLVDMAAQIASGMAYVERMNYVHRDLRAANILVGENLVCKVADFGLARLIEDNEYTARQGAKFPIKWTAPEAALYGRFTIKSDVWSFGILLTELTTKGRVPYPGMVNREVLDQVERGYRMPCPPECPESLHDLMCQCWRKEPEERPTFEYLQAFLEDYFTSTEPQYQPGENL
Outline: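 Compounds were tested for blocking tyrosine phosphorylation of a biotinylated peptide substrate by recombinant human Src. Phosphorylated product was quantified by time-resolved fluorometry using europium cryptate and XL665 conjugates, and IC50 was calculated against the compound-free control.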

human Lck enzyme = molecular target: T3, human Lck enzyme (Homo sapiens, UniProt P06239); test: Lck enzyme inhibitory activity (time-resolved fluorometry, biotinylated peptide phosphorylation); conditions: read-out: LCK_IC50
T3 construct: purchased Carna Biosciences, Inc. 08-170
T3 sequence (P06239 whole entry): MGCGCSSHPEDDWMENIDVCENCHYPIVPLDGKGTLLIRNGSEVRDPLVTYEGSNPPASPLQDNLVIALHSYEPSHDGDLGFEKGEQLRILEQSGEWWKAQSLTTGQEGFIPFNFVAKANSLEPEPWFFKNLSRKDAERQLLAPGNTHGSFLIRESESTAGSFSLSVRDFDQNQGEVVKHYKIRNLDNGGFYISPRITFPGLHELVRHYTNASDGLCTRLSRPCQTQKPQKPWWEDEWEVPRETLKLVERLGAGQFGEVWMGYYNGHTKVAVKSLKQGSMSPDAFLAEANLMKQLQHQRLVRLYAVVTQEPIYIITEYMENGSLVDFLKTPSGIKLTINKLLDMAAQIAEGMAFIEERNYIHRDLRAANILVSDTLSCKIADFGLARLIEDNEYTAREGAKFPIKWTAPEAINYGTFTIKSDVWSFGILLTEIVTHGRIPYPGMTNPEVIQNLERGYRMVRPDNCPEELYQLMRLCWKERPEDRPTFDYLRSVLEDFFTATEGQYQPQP
Outline: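 Readout pairs a europium cryptate-labelled anti-phosphotyrosine antibody with XL665-streptavidin, measured by time-resolved fluorescence. IC50 derived from percent inhibition against untreated controls.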

T1 sequence (P07947 whole entry): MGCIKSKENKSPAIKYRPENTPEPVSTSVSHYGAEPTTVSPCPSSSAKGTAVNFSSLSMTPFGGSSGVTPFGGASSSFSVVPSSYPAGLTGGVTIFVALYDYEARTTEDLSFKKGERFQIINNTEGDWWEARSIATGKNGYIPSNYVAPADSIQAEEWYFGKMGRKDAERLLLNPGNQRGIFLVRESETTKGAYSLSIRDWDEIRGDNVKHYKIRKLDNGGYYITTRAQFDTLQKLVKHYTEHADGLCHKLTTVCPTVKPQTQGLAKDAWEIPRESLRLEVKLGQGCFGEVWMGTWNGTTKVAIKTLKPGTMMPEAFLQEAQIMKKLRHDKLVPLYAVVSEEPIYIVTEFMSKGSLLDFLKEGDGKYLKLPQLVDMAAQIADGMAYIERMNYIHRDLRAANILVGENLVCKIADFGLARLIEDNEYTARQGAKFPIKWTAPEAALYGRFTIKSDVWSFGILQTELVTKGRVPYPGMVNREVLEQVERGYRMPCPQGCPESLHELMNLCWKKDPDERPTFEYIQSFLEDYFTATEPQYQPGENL

SMILES | IC50 (human Yes1 enzyme) | IC50 (human Src enzyme) | IC50 (human Lck enzyme)
Cc1cc(-n2ncc(C(=O)c3cc4cc(OCC(F)F)c(N5CCC(N6CCOCC6)CC5)cc4[nH]3)c2N)ccc1Oc1ccccc1F [Example 5-1-172, [5-amino-1-[4-(2-fluorophenoxy)-3-methylphenyl]pyrazol-4-yl]-[5-(2,2-difluoroethoxy)-6-(4-morpholin-4-ylpiperidin-1-yl)-1H-indol-2-yl]methanone] | 0.9 nM | 170 nM | 18 nM
Cc1cc(-n2ncc(C(=O)c3cc4cc(OC(F)F)c(N5CCOCC5)cc4[nH]3)c2N)ccc1Oc1ccccc1F [Example 5-1-173, [5-amino-1-[4-(2-fluorophenoxy)-3-methylphenyl]pyrazol-4-yl]-[5-(difluoromethoxy)-6-morpholin-4-yl-1H-indol-2-yl]methanone] | 2.6 nM | 340 nM | 100 nM
Cc1cc(-n2ncc(C(=O)c3cc4cc(OC5CCN(C(C)C)CC5)c(N5CCOCC5)cc4[nH]3)c2N)ccc1Oc1ccccc1F [Example 5-1-174, (5-amino-1-(4-(2-fluorophenoxy)-3-methylphenyl)-1H-pyrazol-4-yl)(5-((1-isopropylpiperidin-4-yl)oxy)-6-morpholino-1H-indol-2-yl)methanone] | 0.56 nM | 46 nM | 4.5 nM
Cc1cc(-n2ncc(C(=O)c3cc4cc(OC(F)F)c(N5CCN(S(C)(=O)=O)CC5)cc4[nH]3)c2N)ccc1Oc1ccccc1F [Example 5-1-175, [5-amino-1-[4-(2-fluorophenoxy)-3-methylphenyl]pyrazol-4-yl]-[5-(difluoromethoxy)-6-(4-methylsulfoNylpiperazin-1-yl)-1H-indol-2-yl]methanone] | 2.4 nM | 350 nM | 74 nM
Cc1cc(-n2ncc(C(=O)c3cc4cc(OC5CCN(C(C)C)CC5)c(N5CCN(S(C)(=O)=O)CC5)cc4[nH]3)c2N)ccc1Oc1ccccc1F [Example 5-1-176, [5-amino-1-[4-(2-fluorophenoxy)-3-methylphenyl]pyrazol-4-yl]-[6-(4-methylsulfonylpiperazin-1-yl)-5-(1-propan-2-ylpiperidin-4-yl)oxy-1H-indol-2-yl]methanone] | 1 nM | 79 nM | 11 nM
Cc1cc(-n2ncc(C(=O)c3cc4cc(OC(F)F)c(N5CCOC5=O)cc4[nH]3)c2N)ccc1Oc1ccccc1F [Example 5-1-177, 3-[2-[5-amino-1-[4-(2-fluorophenoxy)-3-methylphenyl]pyrazole-4-carbonyl]-5-(difluoromethoxy)-1H-indol-6-yl]-1,3-oxazolidin-2-one] | 2.4 nM | 340 nM | 82 nM
Cc1cc(-n2ncc(C(=O)c3cc4cc(OC5CCN(C(C)C)CC5)c(N5CCOC5=O)cc4[nH]3)c2N)ccc1Oc1ccccc1F [Example 5-1-178, 3-(2-(5-amino-1-(4-(2-fluorophenoxy)-3-methylphenyl)-1H-pyrazole-4-carbonyl)-5-((1-isopropylpiperidin-4-yl)oxy)-1H-indol-6-yl)oxazolidin-2-one] | 0.37 nM | 48 nM | 3.4 nM
Cc1cc(-n2ncc(C(=O)c3cc4cc(OC(F)F)c(N5C(=O)NC(C)(C)C5=O)cc4[nH]3)c2N)ccc1Oc1ccccc1F [Example 5-1-179, 3-[2-[5-amino-1-[4-(2-fluorophenoxy)-3-methylphenyl]pyrazole-4-carbonyl]-5-(difluoromethoxy)-1H-indol-6-yl]-5,5-dimethylimidazolidine-2,4-dione] | 4 nM | 810 nM | 180 nM
Cc1cc(-n2ncc(C(=O)c3cc4cc(OC5CCN(C(C)C)CC5)c(N5C(=O)NC(C)(C)C5=O)cc4[nH]3)c2N)ccc1Oc1ccccc1F [Example 5-1-180, 3-[2-[5-amino-1-[4-(2-fluorophenoxy)-3-methylphenyl]pyrazole-4-carbonyl]-5-(1-propan-2-ylpiperidin-4-yl)oxy-1H-indol-6-yl]-5,5-dimethylimidazolidine-2,4-dione] | 0.35 nM | 95 nM | 6.3 nM
Cc1cc(-n2ncc(C(=O)c3cc4cc(OC(F)F)c(N5CCC(N6CCOCC6)CC5)cc4[nH]3)c2N)ccc1Oc1ccccc1F [Example 5-1-181, [5-amino-1-[4-(2-fluorophenoxy)-3-methylphenyl]pyrazol-4-yl]-[5-(difluoromethoxy)-6-(4-morpholin-4-ylpiperidin-1-yl)-1H-indol-2-yl]methanone] | 1.4 nM | 390 nM | 41 nM
Cc1cc(-n2ncc(C(=O)c3cc4cc(OC5CCN(C(C)C)CC5)c(N5CCC(N6CCOCC6)CC5)cc4[nH]3)c2N)ccc1Oc1ccccc1F [Example 5-1-182, [5-amino-1-[4-(2-fluorophenoxy)-3-methylphenyl]pyrazol-4-yl]-[6-(4-morpholin-4-ylpiperidin-1-yl)-5-(1-propan-2-ylpiperidin-4-yl)oxy-1H-indol-2-yl]methanone] | 0.17 nM | 24 nM | 2.7 nM
Cc1cc(Oc2c(F)cccc2F)ncc1-n1ncc(C(=O)c2cc3cc(OC4CCN(C(C)C)CC4)c(N)cc3[nH]2)c1N [Example 5-1-183, [5-amino-1-[6-(2,6-difluorophenoxy)-4-methylpyridin-3-yl]pyrazol-4-yl]-[6-amino-5-(1-propan-2-ylpiperidin-4-yl)oxy-1H-indol-2-yl] methanone] | 0.44 nM | 4.9 nM | 2.8 nM
Cc1cc(Oc2c(F)cccc2F)ncc1-n1ncc(C(=O)c2cc3cc(OC4CCN(C(C)C)CC4)c(NS(C)(=O)=O)cc3[nH]2)c1N [Example 5-1-184, N-[2-[5-amino-1-[6-(2,6-difluorophenoxy)-4-methylpyridin-3-yl]pyrazole-4-carbonyl]-5-(1-propan-2-ylpiperidin-4-yl)oxy-1H-indol-6-yl] methanesulfonamide] | 0.43 nM | 11 nM | 2.6 nM
Cc1cc(Oc2c(F)cccc2F)ncc1-n1ncc(C(=O)c2cc3cc(OC4CCN(C(C)C)CC4)c(N4CCOCC4)cc3[nH]2)c1N [Example 5-1-185, [5-amino-1-[6-(2,6-difluorophenoxy)-4-methylpyridin-3-yl]pyrazol-4-yl]-[6-morpholin-4-yl-5-(1-propan-2-ylpiperidin-4-yl)oxy-1H-indol-2-yl]methanone] | 0.36 nM | 2.5 nM | 1.7 nM
Cc1cc(Oc2c(F)cccc2F)ncc1-n1ncc(C(=O)c2cc3cc(OC4CCN(C(C)C)CC4)c(N4CCOC4=O)cc3[nH]2)c1N [Example 5-1-186, 3-[2-[5-amino-1-[6-(2,6-difluorophenoxy)-4-methylpyridin-3-yl]pyrazole-4-carbonyl]-5-(1-propan-2-ylpiperidin-4-yl)oxy-1H-indol-6-yl]-1,3-oxazolidin-2-one] | 0.28 nM | 1.9 nM | 1.3 nM
Cc1cc(Oc2c(F)cccc2F)ncc1-n1ncc(C(=O)c2cc3cc(OC4CCN(C(C)C)CC4)c(N4CCN(S(C)(=O)=O)CC4)cc3[nH]2)c1N [Example 5-1-187, [5-amino-1-[6-(2,6-difluorophenoxy)-4-methylpyridin-3-yl]pyrazol-4-yl]-[6-(4-methylsulfonylpiperazin-1-yl)-5-(1-propan-2-ylpiperidin-4-yl)oxy-1H-indol-2-yl]methanone] | 0.62 nM | 3.2 nM | 2.3 nM
